Reference: ChEMBL document CHEMBL5236670 (Bioorg Med Chem Lett, 2023)
Active and inactive are the calls of the source. No cut-off for these calls is given here.

How the values were obtained:
[1] = Metabolic stability in human liver microsomes assessed as compound remaining at 0.5 uM after 10 mins; format: ADME, Microsome; conditions: read-out: Stability
[2] = Metabolic stability in rat liver microsomes assessed as compound remaining at 0.5 uM after 10 mins; format: ADME, Microsome; conditions: read-out: Stability
[3] = Metabolic stability in mouse liver microsomes assessed as compound remaining at 0.5 uM after 10 mins; format: ADME, Microsome; conditions: read-out: Stability
[4] = target: Glycogen synthase kinase-3 beta (Homo sapiens, UniProt P49841); assay: Inhibition of GSK-3beta (unknown origin) incubated for 1 hr by HTRF assay
Sequence of Glycogen synthase kinase-3 beta (P49841 whole entry): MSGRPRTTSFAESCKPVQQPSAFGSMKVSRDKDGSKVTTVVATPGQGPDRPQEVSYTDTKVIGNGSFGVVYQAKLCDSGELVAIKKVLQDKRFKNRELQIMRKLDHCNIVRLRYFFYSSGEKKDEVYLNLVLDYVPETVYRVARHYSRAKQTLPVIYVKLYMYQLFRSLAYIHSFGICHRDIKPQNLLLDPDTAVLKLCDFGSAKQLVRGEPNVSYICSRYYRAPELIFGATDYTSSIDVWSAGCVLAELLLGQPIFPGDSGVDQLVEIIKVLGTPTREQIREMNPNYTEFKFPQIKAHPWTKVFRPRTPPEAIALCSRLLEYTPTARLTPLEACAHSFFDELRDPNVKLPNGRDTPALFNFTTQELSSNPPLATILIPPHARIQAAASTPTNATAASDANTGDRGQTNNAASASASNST

[5] = tested on: Mus musculus; assay: Anti-alzheimer activity in triple-transgenic mouse model at 30 mg/kg, po; format: functional, organism-based

Structure (SMILES): O=C(Nc1cnccc1C(=O)C(F)(F)F)c1ccnc(NC(=O)C2CC2)c1
- remaining at 10 min, 0.5 µM [1]: 85%
- remaining at 10 min, 0.5 µM [2]: 79%
- remaining at 10 min, 0.5 µM [3]: 57%

Structure (SMILES): O=C(Nc1cnccc1N1CCC(F)(F)CC1)c1ccnc(NC(=O)[C@H]2C[C@@H](Cl)C2)c1
- IC50 [4]: 0.16 nM

Structure (SMILES): C[C@@H]1CN(c2ccncc2NC(=O)c2ccnc(NC(=O)C3CC3)c2)C[C@H](C)O1
- remaining at 10 min, 0.5 µM [1]: 34%
- remaining at 10 min, 0.5 µM [2]: 26%
- remaining at 10 min, 0.5 µM [3]: 4%

Structure (SMILES): O=C(Nc1cnccc1C1CCC1)c1ccnc(NC(=O)C2CC2)c1
- remaining at 10 min, 0.5 µM [1]: 72%
- remaining at 10 min, 0.5 µM [2]: 43%
- remaining at 10 min, 0.5 µM [3]: 1%

Structure (SMILES): O=C(Nc1cnccc1-c1ccc(Cl)cc1)c1ccnc(NC(=O)[C@H]2C[C@@H](F)C2)c1
- IC50 [4]: 6.9 nM

Structure (SMILES): O=C(Nc1cncc(-c2cc(F)ccc2F)c1)c1ccnc(NC(=O)C2CC2)c1
- IC50 [4]: 3.7 nM

Structure (SMILES): C[C@@H]1COCCN1c1ccncc1NC(=O)c1ccnc(NC(=O)C2CC2)c1
- remaining at 10 min, 0.5 µM [1]: 4%
- remaining at 10 min, 0.5 µM [2]: 1%
- remaining at 10 min, 0.5 µM [3]: 0.2%

Structure (SMILES): CC(F)C(=O)Nc1cc(C(=O)Nc2cnccc2-c2ccccc2)ccn1 (centres undefined)
- IC50 [4]: 49 nM

Structure (SMILES): O=C(Nc1cnccc1N1CCCCC1)c1ccnc(NC(=O)C2CC2)c1
- remaining at 10 min, 0.5 µM [1]: 17%
- remaining at 10 min, 0.5 µM [2]: 6%
- remaining at 10 min, 0.5 µM [3]: 1%

Structure (SMILES): O=C(Nc1cnccc1N1CCC(F)(F)CC1)c1ccnc(NC(=O)C2CC2)c1
- remaining at 10 min, 0.5 µM [1]: 25%
- remaining at 10 min, 0.5 µM [2]: 6%
- IC50 [4]: 0.19 nM
- remaining at 10 min, 0.5 µM [3]: 0.2%

Structure (SMILES): O=C(Nc1cncc(-c2cccc(F)c2F)c1)c1ccnc(NC(=O)C2CC2)c1
- IC50 [4]: 2.6 nM

Structure (SMILES): O=C(Nc1cnccc1C(F)(F)F)c1ccnc(NC(=O)C2CC2)c1
- remaining at 10 min, 0.5 µM [1]: 99%
- remaining at 10 min, 0.5 µM [2]: 100%
- remaining at 10 min, 0.5 µM [3]: 86%

Structure (SMILES): O=C(Nc1cncc(-c2ccccc2)c1)c1ccnc(NC(=O)C2CC2)c1
- IC50 [4]: 9 nM

Structure (SMILES): CC(C)C(=O)Nc1cc(C(=O)Nc2cnccc2OCCC(C)(C)O)ccn1
- IC50 [4]: 2.8 nM

Structure (SMILES): O=C(Nc1cncc(-c2ccccc2F)c1)c1ccnc(NC(=O)C2CC2)c1
- remaining at 10 min, 0.5 µM [1]: 88%
- IC50 [4]: 3 nM
- Activity [5]: inactive
- remaining at 10 min, 0.5 µM [3]: 90%

Structure (SMILES): O=C(Nc1cnccc1-c1ccc(Cl)cc1)c1ccnc(NC(=O)[C@H]2C[C@H](F)C2)c1
- IC50 [4]: 1.7 nM

Structure (SMILES): CC1(C)CN(c2ccncc2NC(=O)c2ccnc(NC(=O)C3CC3)c2)CCO1
- remaining at 10 min, 0.5 µM [1]: 35%
- remaining at 10 min, 0.5 µM [2]: 16%
- remaining at 10 min, 0.5 µM [3]: 0.4%

Structure (SMILES): CC(O)c1ccncc1NC(=O)c1ccnc(NC(=O)C2CC2)c1 (centres undefined)
- remaining at 10 min, 0.5 µM [1]: 100%
- remaining at 10 min, 0.5 µM [2]: 100%
- remaining at 10 min, 0.5 µM [3]: 77%

Structure (SMILES): O=C(Nc1cnccc1N1CCC(F)(F)CC1)c1ccnc(NC(=O)[C@H]2C[C@H](Cl)C2)c1
- IC50 [4]: 0.37 nM

Structure (SMILES): CC(C)C(=O)Nc1cc(C(=O)Nc2cnccc2OCC(C)(F)F)ccn1
- IC50 [4]: 1.4 nM

Structure (SMILES): CC(C)(O)c1ccncc1NC(=O)c1ccnc(NC(=O)C2CC2)c1
- remaining at 10 min, 0.5 µM [1]: 87%
- remaining at 10 min, 0.5 µM [2]: 100%
- IC50 [4]: 0.1 nM
- remaining at 10 min, 0.5 µM [3]: 27%

Structure (SMILES): O=C(Nc1cnccc1N1CCOCC1)c1ccnc(NC(=O)C2CC2)c1
- remaining at 10 min, 0.5 µM [1]: 84%
- remaining at 10 min, 0.5 µM [2]: 63%
- remaining at 10 min, 0.5 µM [3]: 2%

Structure (SMILES): O=C(Nc1cnccc1C1CCCCC1)c1ccnc(NC(=O)C2CC2)c1
- remaining at 10 min, 0.5 µM [1]: 1%
- remaining at 10 min, 0.5 µM [2]: 0.4%
- remaining at 10 min, 0.5 µM [3]: 0.6%

Structure (SMILES): O=C(Nc1cnccc1-c1ccccc1)c1ccnc(NC(=O)C2CCC2)c1
- IC50 [4]: 5.7 nM

Structure (SMILES): O=C(Nc1cnccc1-c1ccccc1)c1ccnc(NC(=O)C2CCCC2)c1
- IC50 [4]: 2.1 nM

Structure (SMILES): Cc1ccncc1NC(=O)c1ccnc(NC(=O)C2CC2)c1
- remaining at 10 min, 0.5 µM [1]: 93%
- remaining at 10 min, 0.5 µM [2]: 97%
- remaining at 10 min, 0.5 µM [3]: 82%

Structure (SMILES): C[C@H]1COCCN1c1ccncc1NC(=O)c1ccnc(NC(=O)C2CC2)c1
- remaining at 10 min, 0.5 µM [1]: 9%
- remaining at 10 min, 0.5 µM [2]: 3%
- remaining at 10 min, 0.5 µM [3]: 0.2%

Structure (SMILES): C[C@@H]1CN(c2ccncc2NC(=O)c2ccnc(NC(=O)C3CC3)c2)CCO1
- remaining at 10 min, 0.5 µM [1]: 56%
- remaining at 10 min, 0.5 µM [2]: 36%
- remaining at 10 min, 0.5 µM [3]: 3%

Structure (SMILES): O=C(Nc1cncc(-c2cccc(F)c2F)c1)c1ccnc(NC(=O)C2CCC(F)(F)C2)c1 (centres undefined)
- IC50 [4]: 2.5 nM

Structure (SMILES): O=C(Nc1cnccc1-c1ccccc1)c1ccnc(NC(=O)C2CCOCC2)c1
- IC50 [4]: 4.5 nM

Structure (SMILES): CC1(C)COCCN1c1ccncc1NC(=O)c1ccnc(NC(=O)C2CC2)c1
- remaining at 10 min, 0.5 µM [1]: 0.9%
- remaining at 10 min, 0.5 µM [2]: 0.4%
- remaining at 10 min, 0.5 µM [3]: 0.4%

Structure (SMILES): C=C(C)c1ccncc1NC(=O)c1ccnc(NC(=O)C2CC2)c1
- remaining at 10 min, 0.5 µM [1]: 88%
- remaining at 10 min, 0.5 µM [2]: 57%
- remaining at 10 min, 0.5 µM [3]: 3%

Structure (SMILES): O=C(Nc1cnccc1C1CCCC1)c1ccnc(NC(=O)C2CC2)c1
- remaining at 10 min, 0.5 µM [1]: 7%
- remaining at 10 min, 0.5 µM [2]: 1%
- remaining at 10 min, 0.5 µM [3]: 0.5%

Structure (SMILES): O=C(Nc1cnccc1C(O)C(F)(F)F)c1ccnc(NC(=O)C2CC2)c1 (centres undefined)
- remaining at 10 min, 0.5 µM [1]: 86%
- remaining at 10 min, 0.5 µM [2]: 82%
- IC50 [4]: 3.6 nM
- remaining at 10 min, 0.5 µM [3]: 35%

Structure (SMILES): C[C@H]1CN(c2ccncc2NC(=O)c2ccnc(NC(=O)C3CC3)c2)CCO1
- remaining at 10 min, 0.5 µM [1]: 66%
- remaining at 10 min, 0.5 µM [2]: 40%
- remaining at 10 min, 0.5 µM [3]: 1%

Structure (SMILES): CC(C)c1ccncc1NC(=O)c1ccnc(NC(=O)C2CC2)c1
- remaining at 10 min, 0.5 µM [1]: 87%
- remaining at 10 min, 0.5 µM [2]: 78%
- remaining at 10 min, 0.5 µM [3]: 14%
